Test results from publication PMC8802617 (Bioorganic & medicinal chemistry, 2018).
Where two headings read alike, the source gives them in different places. *1 amine or outer side, *2 acyl side, *3 side chain or, on linkers, in order; H or OH if unused. Where a SMILES comes first, the peptide text is derived from it. Bridges are numbered along the chain shown (N, C = ends). Roman numbers before positions name the chains, in order. [ ]: non-standard residue; d: D form. Piperazine(1,4-diyl) = C1CN([*:2])CCN1[*:1]; dPen = CC(C)(S)[C@@H](N)C(=O)O

Tests used:
KOR [1] = biological target: T1, KOR (Homo sapiens, UniProt P41145); conditions: read-out: KOR Ki, cited from earlier work
T1 sequence (P41145 whole entry): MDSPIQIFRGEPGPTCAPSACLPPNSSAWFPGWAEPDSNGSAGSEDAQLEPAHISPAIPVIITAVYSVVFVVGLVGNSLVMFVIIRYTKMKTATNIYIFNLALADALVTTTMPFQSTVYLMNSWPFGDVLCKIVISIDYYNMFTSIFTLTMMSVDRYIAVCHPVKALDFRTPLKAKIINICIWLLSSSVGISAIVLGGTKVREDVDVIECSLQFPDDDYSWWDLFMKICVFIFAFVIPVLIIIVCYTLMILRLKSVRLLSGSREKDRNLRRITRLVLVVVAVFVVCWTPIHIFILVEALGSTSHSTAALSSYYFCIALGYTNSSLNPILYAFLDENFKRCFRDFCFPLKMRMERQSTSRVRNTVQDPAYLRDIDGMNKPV

DOR [2] = biological target: T2, DOR (Homo sapiens, UniProt P41143); type: binding; conditions: membranes from transient HEK cells
T2 sequence (P41143 whole entry): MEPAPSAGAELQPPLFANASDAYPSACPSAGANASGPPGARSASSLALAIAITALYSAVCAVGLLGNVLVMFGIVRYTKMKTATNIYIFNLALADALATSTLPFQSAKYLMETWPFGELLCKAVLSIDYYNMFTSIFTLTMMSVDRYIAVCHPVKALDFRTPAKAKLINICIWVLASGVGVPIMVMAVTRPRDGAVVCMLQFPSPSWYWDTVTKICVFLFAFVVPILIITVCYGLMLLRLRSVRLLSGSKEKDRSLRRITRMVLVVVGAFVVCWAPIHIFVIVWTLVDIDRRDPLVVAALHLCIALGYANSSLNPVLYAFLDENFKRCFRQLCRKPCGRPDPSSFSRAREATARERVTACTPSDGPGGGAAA

MOR [3] = biological target: T3, MOR (Homo sapiens, UniProt P35372); assay: Split luciferase cAMP assay, agonist mode, HEK cells stably expressing MOR; type: cell-based
T3 sequence (P35372 whole entry): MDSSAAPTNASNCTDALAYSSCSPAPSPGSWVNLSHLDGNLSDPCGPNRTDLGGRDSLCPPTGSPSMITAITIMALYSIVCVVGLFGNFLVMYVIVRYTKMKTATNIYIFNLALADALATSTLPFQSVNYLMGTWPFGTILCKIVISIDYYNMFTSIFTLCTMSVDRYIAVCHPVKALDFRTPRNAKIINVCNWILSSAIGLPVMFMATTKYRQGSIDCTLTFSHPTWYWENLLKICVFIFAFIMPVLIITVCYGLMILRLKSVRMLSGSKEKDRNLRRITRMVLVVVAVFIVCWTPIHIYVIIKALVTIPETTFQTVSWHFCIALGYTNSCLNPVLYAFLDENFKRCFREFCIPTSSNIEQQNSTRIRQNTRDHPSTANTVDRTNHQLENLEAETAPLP

DOR [4] = biological target: T2, DOR; assay: Split luciferase cAMP assay, agonist mode, HEK cells stably expressing DOR; type: cell-based
MOR [5] = biological target: T3, MOR; type: binding; conditions: membranes from transient HEK cells
KOR [6] = biological target: T1, KOR; assay: biochemical; type: binding
KOR [7] = biological target: T1, KOR; assay: cell-based
DOR [8] = biological target: T2, DOR; conditions: read-out: DOR Ki; literature value ref 16; cited from earlier work
MOR [9] = biological target: T3, MOR; conditions: read-out: MOR Ki; literature value ref 16; cited from earlier work

For Biphalin, the Ki (KOR [1]; literature value ref 6) is listed as 0.27 ± 0.015 µM.
CC1(C)SSC(C)(C)[C@@H](NC(=O)[C@@H](N)Cc2ccc(O)cc2)C(=O)NCC(=O)N[C@@H](Cc2ccccc2)C(=O)N2CCN(CC2)C(=O)[C@H](Cc2ccccc2)NC(=O)CNC(=O)[C@@H]1NC(=O)[C@@H](N)Cc1ccc(O)cc1 [ligand 3, c^2,2′(Tyr-DPen-Gly-Phe)2-piperazine] (I: H-Y[dPen]GF / II: H-Y[dPen]GF; disulfide I:2-II:2; linker I:C-II:C via Piperazine(1,4-diyl)) showed a Ki (DOR [2]; DOR [3H]DADLE Ki) of 0.0019 µM, a Ki (DOR [2]; DOR [3H]DADLE pKi) of 0.002 µM and an EC50 (MOR [3]; MOR EC50, agonist mode) of 0.191 µM. For the same compound, the EC50 (MOR [3]; MOR pEC50, agonist mode) was 0.191 µM, the EC50 (DOR [4]; DOR EC50, agonist mode) was 0.269 µM and the EC50 (DOR [4]; DOR pEC50, agonist mode) was 0.269 µM. It also gave a Ki (MOR [5]; MOR [3H]DAMGO Ki) of 0.0029 µM, a Ki (MOR [5]; MOR [3H]DAMGO pKi) of 0.00288 µM and a Ki (KOR [6]; KOR [3H]U69593 Ki) of 0.0056 µM. For the same compound, the Ki (KOR [6]; KOR [3H]U69593 pKi) was 0.00562 µM, the EC50 (KOR [7]; KOR EC50) was 0.269 µM and the EC50 (KOR [7]; KOR pEC50) was 0.269 µM.
For “c^2,2′(Tyr-DPen-Gly-Phe-NH-)2 (YCGF) [compound 6]”, the Ki (KOR [1]; literature value ref 16) is given as 0.257 ± 0.025 µM, the Ki (DOR [8]) is given as 0.0019 ± 0.0002 µM and the Ki (MOR [9]) is given as 0.0052 ± 0.0005 µM.
